Where no end group is shown, it is not given here.
Legend:
[1] = system: AMPK (r); experiment: kinase profiler assay (radiometric); type: biochemical, rat; conditions: @ = 100 μm peptide; less than 100 = kinase inhibition, greater than 100 = stimulation
Description: KIP peptides […] [SEQ ID NO: 142], […] [SEQ ID NO: 173], and […] [SEQ ID NO: 163] were utilized to profile a variety of different kinases. The kinase profiler assay services provided by Upstate, a part of Millipore Corporation (Billerica, Mass.), were utilized to conduct the kinase profiles. The kinase profiler assays, which are radiometric, are based on measuring the amount of radioactive transfer from an ATP (y-^33P-ATP) to a substrate peptide using known concentrations of kinase enzyme, inhibitor, ATP, and buffer at defined time points and temperatures. Details on the reaction conditions for each kinase are available at www.millipore.com/drugdiscovery/dd3/KinaseProfiler. […] ROCK-1(h) (5-10 mU) was incubated with 8 mM MOPS pH 7.0, 0.2 mM EDTA, 30 i.IM of the peptide […] [SEQ ID NO: 189], 10 mM Mg acetate and y-^33P-ATP (specific activity approximately 500 cpm/pmol, concentration as required) in a final reaction volume of 25 pl. The reaction was initiated by the addition of the MgATP mixture in the absence and presence of inhibitor compounds. […] The filtermat was washed three times for 5 minutes in 75 mM phosphoric acid, once in methanol, dried and counted by scintillation counting. […] Scintillation counts (radioactivity) directly correlate with kinase activity. […]

[2] = biological target: T1, PKB β (h) (Homo sapiens, UniProt P31751); experiment: kinase profiler assay (radiometric); type: biochemical; conditions: read-out: Profile-1, PKB β (h)
T1 construct: purchased Upstate (Millipore) KinaseProfiler service
T1 sequence (P31751 whole entry): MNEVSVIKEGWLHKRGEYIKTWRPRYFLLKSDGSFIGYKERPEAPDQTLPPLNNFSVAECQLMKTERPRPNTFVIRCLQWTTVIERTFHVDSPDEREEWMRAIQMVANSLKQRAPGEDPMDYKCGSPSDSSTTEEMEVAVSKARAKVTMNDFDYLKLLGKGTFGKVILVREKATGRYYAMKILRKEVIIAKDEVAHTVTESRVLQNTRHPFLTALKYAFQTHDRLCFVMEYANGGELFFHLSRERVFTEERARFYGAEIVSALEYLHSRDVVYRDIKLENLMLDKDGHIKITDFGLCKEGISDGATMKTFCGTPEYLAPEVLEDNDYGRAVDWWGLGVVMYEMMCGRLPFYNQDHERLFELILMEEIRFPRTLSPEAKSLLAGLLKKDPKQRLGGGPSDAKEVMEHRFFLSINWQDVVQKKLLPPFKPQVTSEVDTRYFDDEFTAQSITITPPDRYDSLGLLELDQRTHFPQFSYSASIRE
Description: KIP peptides […] [SEQ ID NO: 142], […] [SEQ ID NO: 173], and […] [SEQ ID NO: 163] were utilized to profile a variety of different kinases. The kinase profiler assay services provided by Upstate, a part of Millipore Corporation (Billerica, Mass.), were utilized to conduct the kinase profiles. The kinase profiler assays, which are radiometric, are based on measuring the amount of radioactive transfer from an ATP (y-^33P-ATP) to a substrate peptide using known concentrations of kinase enzyme, inhibitor, ATP, and buffer at defined time points and temperatures. Details on the reaction conditions for each kinase are available at www.millipore.com/drugdiscovery/dd3/KinaseProfiler. […] ROCK-1(h) (5-10 mU) was incubated with 8 mM MOPS pH 7.0, 0.2 mM EDTA, 30 i.IM of the peptide […] [SEQ ID NO: 189], 10 mM Mg acetate and y-^33P-ATP (specific activity approximately 500 cpm/pmol, concentration as required) in a final reaction volume of 25 pl. The reaction was initiated by the addition of the MgATP mixture in the absence and presence of inhibitor compounds. After incubation for 40 minutes at room temperature, the reaction was stopped by the addition of 5) 11 of a 3% phosphoric acid solution. 10 pl of the reaction mixture then was spotted onto a P30 filtermat. The filtermat was washed three times for 5 minutes in 75 mM phosphoric acid, once in methanol, dried and counted by scintillation counting. Where the kinase is uninhibited, the kinase phosphorylates a positively charged substrate with radioactive ATP, which then binds to a negatively charged filter membrane. Scintillation counts (radioactivity) directly correlate with kinase activity. […] All profile data less than 100 indicate kinase inhibition while data greater than 100 indicate kinase stimulation.

[3] = biological target: MAPKAP kinase II (MK2) (Homo sapiens, UniProt P49137); experiment: Omnia Lysate Assay for MAPKAP-K2: MK2 reaction velocity; type: biochemical; conditions: same assay conditions as Example 1
Sequence of MAPKAP kinase II (MK2) (P49137 whole entry, species assumed): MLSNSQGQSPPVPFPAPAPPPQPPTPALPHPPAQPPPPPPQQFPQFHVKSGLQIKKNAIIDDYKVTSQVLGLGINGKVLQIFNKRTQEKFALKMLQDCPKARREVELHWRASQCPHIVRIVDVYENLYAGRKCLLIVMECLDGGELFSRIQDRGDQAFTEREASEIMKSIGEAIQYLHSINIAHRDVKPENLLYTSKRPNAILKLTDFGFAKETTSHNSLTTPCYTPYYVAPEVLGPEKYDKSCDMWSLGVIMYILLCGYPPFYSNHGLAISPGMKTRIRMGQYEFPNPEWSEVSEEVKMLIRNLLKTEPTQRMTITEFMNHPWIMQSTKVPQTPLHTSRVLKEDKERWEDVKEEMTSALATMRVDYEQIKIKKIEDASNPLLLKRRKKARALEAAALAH
Description: Using the Omnia™ Lysate Assay for MAPKAP-K2 kit (Invitrogen, Carlsbad, Calif.), the reaction velocity for MK2 was determined in the presence and absence of each of the peptides listed in Table 2. Briefly, inhibitor peptide concentrations at 12.5 μmol, 25 μmol, 50 μmol and 100 μmol were evaluated. The kit contains a proprietary reaction buffer to which the following are added (final concentrations are given): 1 mM ATP, 0.2 mM DTT, 10 μM MAPKAP-K2 Sox-modified peptide substrate, 5 ng MK2, and the peptide inhibitor of interest (final volume of 50 μL). The reactions were performed in the wells of a low protein-binding 96-well plate provided with the kit, and fluorescence readings at 485 nm were taken every 30 seconds for 20 minutes in a Molecular Devices M5 Spectrophotometer. A peptide having the sequence […]
The MK2 inhibition activity of […] [SEQ ID NO: 134] transduction domain was compared with the MK2 inhibition activity of other known transduction domains—[…] [SEQ ID NO: 135] and […] [SEQ ID NO: 190]. The transduction domains were tested for MK2 activity using the same assay conditions as Example 1.
A set of MK2 inhibitor peptides having transduction domains was synthesized (see Table 5). Variants included peptides with the […] [SEQ ID NO: 134] transduction domain and alanine substituted for asparagine, alanine substituted for glycine, or both alanine substitutions in the therapeutic domain. The same peptides with the […] [SEQ ID NO: 135] transduction domain also were prepared. The reaction velocities of these variants were compared to the reaction velocity of a blank with no inhibitor added.

[4] = system: A549 lung cancer cells; experiment: Toxicity testing on cancer cell lines (MTT); type: cell-based; conditions: 72 hours, n=4, read-out: Cell Line IC50, A549
Description: (§1) The seven cell lines were: estrogen dependent MCF-7 breast cancer cells, non estrogen dependent MDA 231 breast cancer cells, SF 539 central nervous system cancer cells, HT29 colon cancer cells, Paca 2 pancreatic cancer cells, PC3 prostate cancer cells, and A549 lung cancer cells. For each cell line, exponentially growing cells were trypsinized and seeded into individual wells of a 96-well plate. Cells were maintained in a humidified, 5% CO2 incubator at 37° C. for 24 hours. The next day, fresh media was added along with 1 μl of a stock solution of peptide to give final peptide concentrations of 0.3 μM, 1 μM, 3 μM, 10 μM, 30 μM, and 100 μM (n=4). Doxorubicin was tested as a positive control. After incubating the cells for 72 hours, to each well was added 20 μl of 0.5% MTT {3-([…])-2,5 diphenyl tetrazolium bromide} solution. The plates then were incubated for an additional 4 hours, at which time the absorbance at 570 nm was measured for each well using a microplate reader. The absorbance was plotted as function of peptide concentration, and IC50 values were calculated for each peptide for each cell line.

[5] = system: HT29 colon cancer cells; experiment: Toxicity testing on cancer cell lines (MTT); type: cell-based; conditions: 72 hours, n=4, read-out: Cell Line IC50, HT29
Description: as §1

[6] = system: PC3 prostate cancer cells; experiment: Toxicity testing on cancer cell lines (MTT); type: cell-based; conditions: 72 hours, n=4, read-out: Cell Line IC50, PC3
Description: as §1

[7] = system: Paca 2 pancreatic cancer cells; experiment: Toxicity testing on cancer cell lines (MTT); type: cell-based; conditions: 72 hours, n=4, read-out: Cell Line IC50, Paca 2
Description: as §1

[8] = system: SF 539 central nervous system cancer cells; experiment: Toxicity testing on cancer cell lines (MTT); type: cell-based; conditions: 72 hours, n=4, read-out: Cell Line IC50, SF 539
Description: as §1

[9] = system: estrogen dependent MCF-7 breast cancer cells; experiment: Toxicity testing on cancer cell lines (MTT); type: cell-based; conditions: 72 hours, n=4, read-out: Cell Line IC50, MCF-7
Description: as §1

[10] = system: non estrogen dependent MDA 231 breast cancer cells; experiment: Toxicity testing on cancer cell lines (MTT); type: cell-based; conditions: 72 hours, n=4, read-out: Cell Line IC50, MDA 231
Description: as §1

[11] = system: MCF-7 breast cancer cells; experiment: Evaluation of apoptosis (Hoescht, Annexin V, propidium iodide staining); type: cell-based; conditions: MCF-7 cells, 24 hours, 3 μM or 10 μM
Description: MCF-7 breast cancer cells were seeded in individual wells of a 96-well plate and were maintained for 24 hours in a humidified, 5% CO2 incubator at 37° C. The next day, fresh media was added along with 1 μl of a stock solution of KIP peptide […] [SEQ ID NO: 166] to give a final concentration of 3 μM or 10 μM (n=4). After incubating the cells for 24 hours, cells were treated with Hoescht dye for nuclear staining, propidium iodide to stain for DNA from necrotic cells, and Annexin V to visualize apoptotic cells.

[12] = system: Ca2+/calmodulin-dependent protein kinase II (CaMKII); conditions: cited from earlier work
[13] = system: PKA; conditions: 1 μM AIP; cited from earlier work
[14] = system: PKC; conditions: 1 μM AIP; cited from earlier work
[15] = biological target: T2, CaMKIV (Homo sapiens, UniProt Q16566); conditions: 1 μM AIP; cited from earlier work
T2 sequence (Q16566 1-473): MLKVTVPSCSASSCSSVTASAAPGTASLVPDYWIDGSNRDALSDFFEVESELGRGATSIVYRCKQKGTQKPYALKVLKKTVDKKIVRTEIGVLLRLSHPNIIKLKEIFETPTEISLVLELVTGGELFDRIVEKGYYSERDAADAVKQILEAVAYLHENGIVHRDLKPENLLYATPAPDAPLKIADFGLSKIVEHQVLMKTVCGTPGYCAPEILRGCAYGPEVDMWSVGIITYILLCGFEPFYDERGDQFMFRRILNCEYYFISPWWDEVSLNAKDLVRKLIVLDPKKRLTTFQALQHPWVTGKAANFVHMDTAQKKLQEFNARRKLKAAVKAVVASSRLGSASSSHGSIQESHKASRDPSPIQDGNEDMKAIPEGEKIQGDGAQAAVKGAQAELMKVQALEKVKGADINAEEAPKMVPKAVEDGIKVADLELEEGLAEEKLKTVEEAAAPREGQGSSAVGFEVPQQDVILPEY

Compound | MK2 inhibition (in words) [3] | IC50 [4] [µM] | IC50 [5] [µM] | IC50 [6] [µM] | IC50 [7] [µM] | IC50 [8] [µM] | IC50 [9] [µM] | IC50 [10] [µM] | other results
CC(C)C[C@H](NC(=O)[C@H](C)NC(=O)[C@H](CCCCN)NC(=O)[C@H](CCCNC(=N)N)NC(=O)[C@H](Cc1ccc(O)cc1)NC(=O)[C@H](CC(C)C)NC(=O)[C@H](CCCNC(=N)N)NC(=O)[C@H](C)NC(=O)[C@H](C)NC(=O)[C@H](CC(C)C)NC(=O)[C@H](CCCCN)NC(=O)[C@H](C)NC(=O)[C@@H](N)Cc1ccccc1)C(=O)N[C@@H](C)C(=O)N[C@@H](CCCNC(=N)N)C(=O)N[C@@H](CCC(N)=O)C(=O)N[C@@H](CC(C)C)C(=O)NCC(=O)N[C@H](C(=O)N[C@@H](C)C(=O)N[C@@H](C)C(=O)O)C(C)C |  |  |  |  |  |  |  |  | Profile-1, AMPK (r) [1]: 101; activity at 100 µM [2]: 16%
CC(C)C[C@H](NC(=O)[C@H](C)NC(=O)[C@H](CCCCN)NC(=O)[C@H](CCCNC(=N)N)NC(=O)[C@H](Cc1ccc(O)cc1)NC(=O)[C@H](CC(C)C)NC(=O)[C@H](CCCNC(=N)N)NC(=O)[C@H](C)NC(=O)[C@H](C)NC(=O)[C@H](CC(C)C)NC(=O)[C@H](CCCCN)NC(=O)[C@H](C)NC(=O)[C@H](Cc1ccccc1)NC(=O)[C@H](C)NC(=O)[C@@H](N)CCCCN)C(=O)N[C@@H](C)C(=O)N[C@@H](CCCNC(=N)N)C(=O)N[C@@H](CCC(N)=O)C(=O)N[C@@H](CC(C)C)C(=O)NCC(=O)N[C@H](C(=O)N[C@@H](C)C(=O)N[C@@H](C)C(=O)O)C(C)C |  |  |  |  |  |  |  |  | Profile-1, AMPK (r) [1]: 118; activity at 100 µM [2]: 28%
CC[C@H](C)[C@H](NC(=O)[C@H](CCCNC(=N)N)NC(=O)[C@H](CCCNC(=N)N)NC(=O)[C@H](CC(C)C)NC(=O)[C@H](Cc1c[nH]c2ccccc12)NC(=O)[C@H](C)NC(=O)[C@H](CCCCN)NC(=O)[C@@H](NC(=O)[C@H](CCCNC(=N)N)NC(=O)[C@H](CCCNC(=N)N)NC(=O)[C@H](CC(C)C)NC(=O)[C@@H](N)Cc1c[nH]c2ccccc12)[C@@H](C)CC)C(=O)N[C@@H](CCCCN)C(=O)N[C@@H](C)C(=O)O | inhibited MK2 significantly more than KKKALNRQLGVAA |  |  |  |  |  |  |  | 
CC[C@H](C)[C@H](NC(=O)[C@H](CCCCN)NC(=O)[C@H](CCCCN)NC(=O)[C@H](CC(C)C)NC(=O)[C@H](Cc1c[nH]c2ccccc12)NC(=O)[C@H](C)NC(=O)[C@H](CCCCN)NC(=O)[C@@H](NC(=O)[C@H](CCCNC(=N)N)NC(=O)[C@H](CCCNC(=N)N)NC(=O)[C@@H](N)Cc1c[nH]cn1)[C@@H](C)CC)C(=O)N[C@@H](CCCCN)C(=O)N[C@@H](C)C(=O)N[C@@H](CC(C)C)C(=O)N[C@@H](C)C(=O)N[C@@H](CCCNC(=N)N)C(=O)N[C@@H](CCC(N)=O)C(=O)N[C@@H](CC(C)C)C(=O)NCC(=O)N[C@H](C(=O)N[C@@H](C)C(=O)N[C@@H](C)C(=O)O)C(C)C [Peptide 1] |  | 8.7 | 6.7 | 6 | 9 | 4.3 | 1.6 | 9.3 | Annexin V staining relative to propidium iodide staining (apoptosis) [11]: annexin V staining was much more intense than propidium iodide staining
N=C(N)NCCC[C@H](NC(=O)[C@H](CCCNC(=N)N)NC(=O)[C@H](CCCNC(=N)N)NC(=O)[C@H](CCC(N)=O)NC(=O)[C@H](CCCNC(=N)N)NC(=O)[C@H](CCCNC(=N)N)NC(=O)[C@H](CCCCN)NC(=O)[C@H](CCCCN)NC(=O)[C@H](CCCNC(=N)N)NC(=O)CNC(=O)[C@@H](N)Cc1ccc(O)cc1)C(=O)O [reference compound] | also inhibit MK2 but not nearly as much as WLRRIKAWLRRIKA |  |  |  |  |  |  |  | 
KKALRRQEAVDAL [AIP] |  |  |  |  |  |  |  |  | CaMKII activity ([12]; 1 μM AIP): completely inhibited; IC50 [12]: 0.1 µM; PKA activity [13]: not affected; PKC activity [14]: not affected; CaMKIV activity [15]: not affected
WLRRIKA [WLRRIKA] | same level of inhibition as the no inhibitor control |  |  |  |  |  |  |  | 
WLRRIKAHRRIKALARQLGVAA [Peptide 2] |  | 31.9 | 26.4 | 28.9 | 19.5 | 26 | 7.8 | 19.9 | 
WLRRIKAWLRR [Peptide 3] |  | 34.3 | 20.7 | 35.5 | 42.5 | 22 | 13.5 | 17.4 | 
WLRRIKAWLRRALNRQLGVAA [Peptide 4] |  | 12.5 | 11.8 | 23.7 | 11.2 | 10 | 4.4 | 12 | 
YARAAARQARA [reference compound] | also inhibit MK2 but not nearly as much as WLRRIKAWLRRIKA |  |  |  |  |  |  |  | 
